Results published in ChEMBL document CHEMBL3351403, “Lead identification of benzimidazolone and azabenzimidazolone arylsulfonamides as CC-chemokine receptor 4 (CCR4) antagonists” (Bioorg Med Chem, 2014).

Assay: Lipophilicity, log D of the compound at pH 7.4 by chromatography
Assay type: physicochemical
Conditions: buffer

Structure (SMILES) | chromatographic logD
COc1cccc2c1c(NS(=O)(=O)c1cccc(Cl)c1Cl)nn2C | 5.3
COc1cc2c(cc1NS(=O)(=O)c1cccc(Cl)c1Cl)[nH]c(=O)n2C1CNC1 | 3
COc1cc2[nH]c(=O)[nH]c2nc1NS(=O)(=O)c1cccc(Cl)c1Cl | 2.4
COc1nc2[nH]c(=O)[nH]c2cc1NS(=O)(=O)c1cccc(Cl)c1Cl | 3.2
COc1cc2c(cc1NS(=O)(=O)c1cccc(Cl)c1Cl)[nH]c(=O)n2CC(N)=O | 2.5
COc1cc2[nH]c(=O)[nH]c2cc1NS(=O)(=O)c1cccc(Cl)c1Cl | 3.2
COc1cc2c(cc1NS(=O)(=O)c1cccc(Cl)c1Cl)[nH]c(=O)n2C1CN(C(C)=O)C1 | 3.7
COc1cc2c(cc1NS(=O)(=O)c1cccc(Cl)c1Cl)[nH]c(=O)n2CCN(C)C | 2.6
COc1cc2c(cc1NS(=O)(=O)c1cccc(Cl)c1Cl)n(C)c(=O)n2C | 4.4
COc1cc2[nH]c(=O)n(CC(N)=O)c2cc1NS(=O)(=O)c1cccc(Cl)c1Cl | 2.4
COc1cc2c(cc1NS(=O)(=O)c1cccc(Cl)c1Cl)[nH]c(=O)n2C1COC1 | 4.6

Next, values leading:

chromatographic logD | Structure (SMILES)
3.7 | COc1cc2[nH]c(=O)n(C)c2cc1NS(=O)(=O)c1cccc(Cl)c1Cl
3.8 | COc1cc2c(cc1NS(=O)(=O)c1cccc(Cl)c1Cl)[nH]c(=O)n2C
2.1 | COc1cc2c(cc1NS(=O)(=O)c1cccc(Cl)c1Cl)[nH]c(=O)n2C(CO)CO
3.2 | CCCn1c(=O)[nH]c2cc(NS(=O)(=O)c3cccc(Cl)c3Cl)c(OC)cc21
4.7 | COc1cc2c(cc1NS(=O)(=O)c1cccc(Cl)c1Cl)[nH]c(=O)n2C(C)C
